PubChem BioAssay (NCI)
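1) Cells in 96-well plates. 2) Compound, 48 h, 5 concentrations. 3) Linear interpolation between surrounding doses. 4) Unreached endpoint = highest concentration. Here, GI50 denotes the concentration required for 50% inhibition of growth. Definition used: TGI = concentration required for complete inhibition of growth.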

What was measured:
Test in all cases: DTP human tumour cell line panel, 48 h
COLO 205 colon = test system: COLO 205 colon
HT29 colon = test system: HT29 colon
NCI/ADR-RES ovarian = test system: NCI/ADR-RES ovarian
SF-539 CNS = test system: SF-539 CNS
CCRF-CEM leukemia = test system: CCRF-CEM leukemia
HCC-2998 colon = test system: HCC-2998 colon
SK-MEL-5 melanoma = test system: SK-MEL-5 melanoma
SN12C renal = test system: SN12C renal
HOP-62 NSCLC = test system: HOP-62 NSCLC
MDA-MB-231 breast = test system: MDA-MB-231 breast
SNB-19 CNS = test system: SNB-19 CNS
MALME-3M melanoma = test system: MALME-3M melanoma
A498 renal = test system: A498 renal
PC-3 prostate = test system: PC-3 prostate
SR leukemia = test system: SR leukemia
MOLT-4 leukemia = test system: MOLT-4 leukemia
EKVX NSCLC = test system: EKVX NSCLC
K-562 leukemia = test system: K-562 leukemia
NCI-H522 lung = test system: NCI-H522 lung
LOX IMVI melanoma = test system: LOX IMVI melanoma
NCI-H23 lung = test system: NCI-H23 lung
NCI-H460 lung = test system: NCI-H460 lung
MDA-MB-435 = test system: MDA-MB-435
KM12 colon = test system: KM12 colon
MCF7 breast = test system: MCF7 breast
HOP-92 NSCLC = test system: HOP-92 NSCLC
TK-10 renal = test system: TK-10 renal
SNB-75 CNS = test system: SNB-75 CNS

SMILES: CCN(CC)CCN1C(=O)c2c(c3c4cc(Br)ccc4[nH]c3c3ccc4ccccc4c23)C1=O
- GI50 (COLO 205 colon): 1430 nM
- TGI (COLO 205 colon): 3130 nM
- GI50 (HT29 colon): 1350 nM
- TGI (HT29 colon): 2800 nM
- GI50 (NCI/ADR-RES ovarian): 1430 nM
- TGI (NCI/ADR-RES ovarian): 4190 nM
- GI50 (SF-539 CNS): 1560 nM
- TGI (SF-539 CNS): 3000 nM
- GI50 (CCRF-CEM leukemia): 186 nM
- TGI (CCRF-CEM leukemia): 1750 nM
- GI50 (HCC-2998 colon): 1660 nM
- TGI (HCC-2998 colon): 3430 nM
- GI50 (SK-MEL-5 melanoma): 1750 nM
- TGI (SK-MEL-5 melanoma): 3180 nM
- GI50 (SN12C renal): 1580 nM
- TGI (SN12C renal): 3140 nM
- GI50 (HOP-62 NSCLC): 922 nM
- TGI (HOP-62 NSCLC): 2250 nM
- GI50 (MDA-MB-231 breast): 1410 nM
- TGI (MDA-MB-231 breast): 3000 nM
- GI50 (SNB-19 CNS): 1430 nM
- TGI (SNB-19 CNS): 2840 nM
- GI50 (MALME-3M melanoma): 1560 nM
- TGI (MALME-3M melanoma): 3060 nM
- GI50 (A498 renal): 1640 nM
- TGI (A498 renal): 3290 nM
- GI50 (PC-3 prostate): 1310 nM
- TGI (PC-3 prostate): 2650 nM
- GI50 (SR leukemia): 102 nM
- TGI (SR leukemia): 520 nM
- GI50 (MOLT-4 leukemia): 215 nM
- TGI (MOLT-4 leukemia): 1920 nM
- GI50 (EKVX NSCLC): 1380 nM
- TGI (EKVX NSCLC): 2920 nM
- GI50 (K-562 leukemia): 273 nM
- TGI (K-562 leukemia): 905 nM
- GI50 (NCI-H522 lung): 1290 nM
- TGI (NCI-H522 lung): 2670 nM
- GI50 (LOX IMVI melanoma): 1250 nM
- TGI (LOX IMVI melanoma): 3040 nM
- GI50 (NCI-H23 lung): 1500 nM
- TGI (NCI-H23 lung): 3320 nM
- GI50 (NCI-H460 lung): 476 nM
- TGI (NCI-H460 lung): 1850 nM
- GI50 (MDA-MB-435): 1630 nM
- TGI (MDA-MB-435): 3080 nM
- GI50 (KM12 colon): 1710 nM
- TGI (KM12 colon): 3500 nM
- GI50 (MCF7 breast): 43.9 nM
- TGI (MCF7 breast): 1640 nM
- GI50 (HOP-92 NSCLC): 1320 nM
- TGI (HOP-92 NSCLC): 2710 nM
- GI50 (TK-10 renal): 2110 nM
- TGI (TK-10 renal): 3560 nM
- GI50 (SNB-75 CNS): 1450 nM
- TGI (SNB-75 CNS): 2840 nM
